Assay [1] relates to in vitro complement activation (C3 and C4 conversion; MASP-2). Kind of assay: in vitro complement activation (C3a and C4a by RIA) in blood or plasma of normal donors. As to conditions: for MASP activity: inferred from C4a generation in EDTA blood (FIG. 2); for C4 conversion in blood, additive combined with EDTA: additive plus EDTA, 60 min at rt (FIG. 2); for C4 conversion (C4a generation) in whole blood / C3a generation in whole blood: no EDTA; for C4 conversion (C4a generation) in whole blood: over 60 min at rt (FIG. 2); for C3a generation in whole blood: 0.15 mM Benzamidine, 20 μM Trasylol or 0.1 mg/ml Futhan, 0 time vs 60 min at rt (FIG. 2). It is filed as biochemical, human. As for the experimental part:
(§1) Blood samples were either drawn into EDTA tubes (Venoject, Terumo Corp. Elkston, Md.) or Futhan/EDTA tubes (Venoject, Terumo Europe, Leuven, Belgium). The plasma was collected immediately by centrifugation at 2000 g for 15 min. at 4° C. unless otherwise indicated. The plasma samples were either processed immediately for analysis or snap frozen in liquid nitrogen and stored at -70° C. Frozen samples were thawed at 4° C. and processed as described in the text.
(§2) Equal volumes of the plasma sample and the precipitating reagent supplied in the Biotrak RIA kits were mixed by thorough agitation and incubated at rt. for 5 min. The mixture was then centrifuged at 2500 g for 15 min. at 4° C. The supernatant from each sample tube was collected for analysis in the RIA assay. A 50 μl aliquot of the original or diluted supernatant was mixed with 50 μl of the Biotrak assay buffer in a 12×75 mm polypropylene tube. The I^125 labeled C3a or C4a and the specific antibody solutions (50 μl each from the kit) were added and incubated at rt. for 30 min. (for antibody to C3a, C4a, C5a and des Arg derivatives thereof, see Hugli et al. (1975) J. Biol. Chem. 250:1472-1478; Hugli (1975) J. Biol. Chem. 250:8293; and Hugli et al. (1981) J. Biol. Chem. 256:2685-2692). A 50 μl aliquot of the second antibody (goat anti-rabbit) was added to the tube and the mixture incubated for an additional 30 min. at rt. Two ml of isotonic saline was added and the tube was centrifuged at 2000 g for 10 min. at 4° C. to pellet the antigen-antibody complexes. The supernatant in the tubes was decanted and the tubes were counted for 1 min. in a Cobra Auto-gamma Model 5002 (Packard Instrument Co., Meriden, Conn.) scintillation counter. Analysis of each sample was performed in duplicate. Data was analyzed using RiaSmart software supplied by Packard Instruments and installed in the Cobra Auto-gamma counter.
Blood from a normal donor was drawn into EDTA and 0 to 0.2 mg/ml Futhan was added over time indicated. Plasma was recovered within 30 min. of being drawn and a precipitating agent was added to the 0 time plasma sample (EDTA/p10) to prevent further C-activation. An EDTA/Futhan plasma sample (EDTA/p1) and an EDTA/Futhan blood sample (EDTA/b1) were stored for 1 hr. at 22° C. A separate set of EDTA/Futhan plasma samples were either stored at 4° C. for 24 hr (EDTA/p4) or frozen at -70° C. for 24 hr (EDTA/pF) and then thawed for analysis. C3a and C4a levels were determined using a radioimmunoassay procedure.
Whole blood from a normal donor was drawn into 0.15 mM benzamidine, 20 μM Trasylol or 0.1 mg/ml Futhan and processed either immediately (0 time) or after 60 min. at rt, and then analyzed for C3a and C4a.
In this experiment, whole EDTA (0.5 mg/ml) blood from a normal donor was incubated at 4° C. with and without 0.1 mg/ml Futhan added. The C3a and C4a levels were determined versus time over 23-hr.
Complement activation in EDTA plasma was compared with activation in EDTA/Futhan plasma at room temperature (22-24° C.) over a period of one hour (experiment 3A). […] All blood samples were drawn into EDTA, with and without 0.1 mg/ml Futhan present, and the plasma was collected (see Materials and Methods) and frozen at -70° C. These samples were thawed at 4° C. and analyzed after 0 and 60 min. at rt.

Assay [2] has the same test system. As to the kind of experiment: in vitro complement activation (C3a and C4a by RIA) in plasma of liver transplant patients. The format is biochemical, human. As for the experimental part: Blood from nineteen liver transplant patients was collected in 0.1 mg/ml Futhan and 0.5 mg/ml EDTA. The C3a and C4a levels were measured at 0 time and after 1 hr at room temperature. These samples were obtained during routine visits by the patients having no signs of acute rejection episodes.
Blood samples of 5-10 ml were drawn from normal donors, liver transplant and SLE (lupus) patients under an approved Human Subjects protocol #96-293 and all individuals were asked to sign an informed consent form agreeing to be voluntary donors. Normal donors were a random group of male and female individuals between the ages of 27-48. Liver transplant patients were selected from a group of patients being routinely followed at The Scripps Clinic Foundation by Dr. John Brems. None of these organ transplant patients were experiencing acute rejection episodes at the time that the blood was drawn.
as §1, §2
C3a and C4a generation was examined in EDTA plasma of liver transplant patients (average values, n=19) with and without […] Futhan present. These subjects were stable transplant patients not undergoing a clinically detectable rejection episode.

For the next assay, the system named is Hageman factor. Conditions: Hitomi et al. (1985); cited from earlier work.
The subject of the next assay is Factor Xa. As to conditions: Hitomi et al. (1985); cited from earlier work.
For assay [3], the system named is acute rejection episode in liver transplant patients. Kind of assay: treatment of rejection episodes in liver transplant patients. It is filed as in vivo, human. As to conditions: two 1 g (I.V.) doses. The text has this:
Blood and urine samples were collected over a period of two years from 63 liver transplant patients during routine post-operative clinical visits. The patients' identities were concealed and no selection process or attempt was made to recruit patients for any other reason than that they had undergone orthotopic liver transplantation at The Scripps Clinic and Research Foundation. Immunosuppression was initiated with a regimen of cyclosporine A (CsA), azathioprine and steroids. Treatment for some of these patients was switched to FK506, but none was treated with OKT3. Patients were seen weekly in the outpatient transplant clinic after transplantation until their liver function tests stabilized. […] Measurement of the relevant clinical parameters was obtained during each visit. Liver biopsies were obtained whenever there was an abnormality in liver function tests.

Where [4] appears, read: normal donor, listed as benzamidine.
[5] abbreviates: n=20, stored at 4° C. for 24 hours.
The mark [6] stands for this setting: normal plasma, n = 20, processed immediately at rt, total data set.
Setting [7] is: normal plasma, processed immediately at rt, values outside ± 2σ eliminated.
Setting [8] is: Table III samples, plasma processed immediately.

Entries after “also recorded” stand apart in the source; their conditions may differ.

Regarding `N=C(N)c1ccccc1` [Benzamidine, benzamidine], the MASP activity result in assay [1] was “does not inhibit MASP activity”. In assay [1] (normal donor), the “C4 conversion in blood, additive combined with EDTA” value (“C4 conversion in blood” below) is on record as “extensive conversion of C4 occurred”; the “C4 conversion (C4a generation) in whole blood” value is reported as “relatively effective in preventing C4 conversion”; the “C3a generation in whole blood” value was “failed to prevent C3a generation”. Moreover, in assay [1] (setting [4]), the “C4 conversion in blood” value is recorded as “high levels of C4a are generated” and the “C4 conversion (C4a generation) in whole blood” value is listed as “no C4a generated in whole blood”.
Consider `O=C(O)CN(CCN(CC(=O)O)CC(=O)O)CC(=O)O` [EDTA, ethylenediaminetetraacetic acid], for which, in assay [1] (Table II, line III), the “activity of the Lectin Pathway in EDTA plasma” value is “IN VITRO”. Also, the “C4a elevation over 60 min in normal plasma” value in assay [1] (n=11, average, rt) was 3-4 fold. Besides, the “C4a level in normal plasma at 0 time” value in assay [1] (n=11, frozen at -70° C., thawed at 4° C., 0 min at rt (experiment 3A)) came to 242 ± 95 ng/mL. Besides, the “C4a level in normal plasma after 60 min” value in assay [1] (n=11, frozen at -70° C., thawed at 4° C., 60 min at rt (experiment 3A)) was determined as 768 ± 392 ng/mL. Moreover, in assay [1] (setting [5]), the “C3a values in normal plasma” value was 0.60 ± 0.026 µg/mL and the “C4a levels in normal plasma” value is 0.32 ± 0.017 µg/mL. The “C4a level in whole blood at 4° C., end” value in assay [1] (normal donor, EDTA 0.5 mg/ml, after 23 hr) was “more than 1700 ng/ml”. For the same molecule, in assay [1] (normal donor, EDTA 0.5 mg/ml, start of 23-hr period), the “C4a level in whole blood at 4° C., start” value was determined as 300 ng/mL. For the same molecule, in assay [1] (normal plasma, n = 20, EDTA 1 mg/ml or Futhan 0.2 mg/ml and EDTA, processed immediately at rt, total data set), the “C3a, mean ± standard deviation, data set I” value came to 599 ± 263 ng/mL. Also, in assay [1] (setting [6]), the “C3a, range of values, data set I” value fell in the range of 349 to 1344 ng/mL; the “C4a, mean ± standard deviation, data set I” value is 316 ± 169 ng/mL; the “C4a, range of values, data set I” value fell in the range of 130 to 774 ng/mL. In assay [1] (setting [7]), the “C3a, mean ± standard deviation, data set II” value was 484 ± 110 ng/mL; the “C3a, range of values, data set II” value lay within 349 to 722 ng/mL; the “C4a, mean ± standard deviation, data set II” value is 268 ± 95 ng/mL; the “C4a, range of values, data set II” value was 130 to 433 ng/mL. In addition, in assay [1] (normal whole blood (FIG. 2)), the “C3 conversion when EDTA was added to the blood” value is “virtually no C3 was converted” and the “C4 conversion when EDTA was added to the blood” value is recorded as “remarkable increase in C4 conversion”. Moreover, the “C3a levels in whole blood at 4° C. versus time, relative to Futhan/EDTA blood” value in assay [1] (over 23 hr) is given as “only slightly higher”. For the same molecule, the “C3a generation in normal blood at 4° C.” value in assay [1] (over a 27-hr period) is “sufficient to prevent C3a generation”. In addition, in assay [2] (n=19, average), the “C4a in liver transplant patient plasma after 60 min at rt” value came out at 16.9 µg/mL and the “C4a in liver transplant patient plasma at 0 time” value was 4.02 µg/mL. In assay [2] (n=19, average (experiment 3B)), the “C4a level in liver transplant patient plasma at 0 time” value turned out to be 4020 ± 6100 ng/mL.
With `CS(=O)(=O)O.CS(=O)(=O)O.N=C(N)Nc1ccc(C(=O)Oc2ccc3cc(C(=N)N)ccc3c2)cc1` [Futhan, 6-amidino-2-naphthyl-p-guanidinobenzoate dimethanesulfonate], in the assay on Hageman factor, the “effective inhibitory level toward Hageman factor” value was “sub-micromolar level”. Besides, the “C4 conversion / C-activation versus time in normal EDTA plasma” value in assay [1] (0.01 mg/ml Futhan, dimethanesulfonate) was “measurable reduction in C4 conversion; also recorded: effective in protecting normal plasma from C-activation”. For the same molecule, the “C4 cleavage in normal EDTA plasma” value in assay [1] (0.10 mg/ml Futhan, over a 24-hour period) is on record as “virtually eliminated C4 cleavage”. In addition, the “C3a levels in EDTA samples” value in assay [1] (0.2 mg/ml Futhan, compared with lower Futhan levels (experiment 1)) is “somewhat higher”. Further, the “activation of C4 in normal EDTA plasma” value in assay [1] (Futhan added (experiment 1)) is recorded as “abolished”. Besides, the “activity of all pathways with Futhan (Futhan/EDTA)” value in assay [1] (Table II, line IV) is listed as “NO IN VITRO C-ACTIVATION”. Moreover, in assay [1] (setting [8]), the “reduction in C3a levels by addition of Futhan” value is “no significant reduction” and the “reduction in C4a levels by addition of Futhan” value is given as “only marginal reduction”. In addition, in assay [1], the MASP activity entry is “inhibits MASP”. For the same molecule, in assay [1] (n=11, 0.1 mg/ml Futhan, rt, one hour (experiment 3A)), the “C3a and C4a generation in EDTA plasma from normal donors” value was “effectively inhibited”. Moreover, the “C4 conversion in blood” value in assay [1] (normal donor, dimethanesulfonate) is on record as “fully effective; also recorded: fully blocked in vitro C-activation”. Also, in assay [1] (normal donor), the “C3a generation in whole blood” value was “effective inhibitor”. For the same molecule, in assay [1] (stored 24 hr on ice or frozen and thawed), the “generation of C3a or C4a in stored samples” value is recorded as “minimal generation of either C3a or C4a”. Besides, in assay [1] (with or without EDTA, up to one hour at room temperature (FIG. 2)), the “stabilizing C3 and C4 in normal whole blood” value was “effective in stabilizing C3 and C4”. Besides, the “time-dependent C3a and C4a elevation in patient EDTA plasma” value in assay [2] (60 min at room temperature (experiment 3B)) is “effectively prevented”. The “levels of C3a and C4a after 1 hr of incubation at rt” value in assay [2] (nineteen patients, 0.1 mg/ml Futhan and 0.5 mg/ml EDTA) is listed as “unchanged in most samples”. The “C4 converting activity in EDTA plasma” value in assay [2] (transplant patients) is listed as “fully inhibitable”. Moreover, in the assay on Factor Xa, the “effective inhibitory level toward Factor Xa” value is listed as “sub-micromolar level”.
For `C[C@H]1C[C@@H]2[C@H]([C@@H](O)C[C@@]3(C)[C@H]2CC[C@]3(O)C(=O)CO)[C@@]2(C)C=CC(=O)C=C12` [methylprednisolone], the “course of the rejection episode after treatment” value in assay [3] is recorded as “resolved rapidly”.

The record behind these values is patent US6297024A, “Methods for assessing complement activation” (Cell Activation, Inc., priority 1999, dated 2001).
